The test system of test [1] is TNFα production in LPS-stimulated human monocytes. As to the kind of experiment: Cot Monocyte TNFα Cell Based Assay. The conditions noted are these: Homo sapiens, Monocyte, read-out: EC50 TNF. Put shortly: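 5,000 cells/well; cmpd 1 h, 37 °C, 0.5% DMSO final; LPS 50 pg/ml, 4 h, 37 °C; media TNFα by HTRF sandwich (cryptate/XL665), RT overnight; % control vs unstimulated/stimulated wells.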

Test [2] concerns the target T1, human Cot catalytic domain (30-397 amino acids) (Homo sapiens, UniProt P41279).
T1 construct: Purified recombinant human Cot catalytic domain (30-397 amino acids) was purchased from Cama Biosciences; purchased Cama Biosciences (so in the source)
As to the kind of experiment: High Throughput Cot Biochemical Assay (KinEASE TR-FRET). The conditions noted are these: read-out: IC50 HTRF. Put shortly: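 First, purified human Cot (aa 30-397) at 5 nM phosphorylates an XL665-labeled STK3 peptide (1 μM) at 400 μM ATP, pH 7.0, 0.1% DMSO. Then a europium-conjugated phospho-specific antibody binds the product, giving the TR-FRET signal.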
In general terms: Time-resolved FRET reads energy transfer from a long-lived donor to a nearby acceptor.

The mark [3] stands for this setting: TNFα in LPS-stimulated human monocytes.
Where [4] appears, read: Cot KinEASE TR-FRET (HTRF) biochemical assay, 400 μM ATP.
Where [5] appears, read: LPS-stimulated human monocytes, TNFα TR-FRET.
[6] abbreviates: Cot KinEASE TR-FRET, 400 μM ATP.
The mark [7] stands for this setting: Cot biochemical HTRF (KinEASE TR-FRET) assay.

Each structure is given as a SMILES string. Like-named read-outs stand apart in the source and are kept apart here.

T1 sequence (P41279 30-397): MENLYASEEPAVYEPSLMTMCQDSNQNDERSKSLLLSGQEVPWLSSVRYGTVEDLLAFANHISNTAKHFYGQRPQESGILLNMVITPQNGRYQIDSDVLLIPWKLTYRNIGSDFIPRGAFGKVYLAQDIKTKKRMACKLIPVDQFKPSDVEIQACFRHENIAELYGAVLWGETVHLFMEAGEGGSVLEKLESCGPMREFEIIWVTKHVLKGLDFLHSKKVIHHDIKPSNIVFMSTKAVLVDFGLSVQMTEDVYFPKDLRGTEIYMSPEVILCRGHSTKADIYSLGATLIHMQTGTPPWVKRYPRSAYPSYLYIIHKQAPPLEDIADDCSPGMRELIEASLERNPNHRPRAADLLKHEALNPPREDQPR

In general, EC50 refers to the concentration that produces a half-maximal response. One may read the IC50 as the midpoint of a concentration-inhibition curve. On to `CCN1CCC(n2cc([C@@H](Nc3cc(Cl)c4ncc(C#N)c(Nc5ccc(F)c(Cl)c5)c4c3)c3cccc(C(=O)N(C)C)c3)nn2)CC1` [Compound 41], for which the EC50 in test [1] (setting [3]) is 74 nM. Besides, the IC50 in test [2] (setting [4]) amounted to 1 nM.

With `[2H][C@](Nc1cc(Cl)c2ncc(C#N)c(NCC3(C(F)F)CC3)c2c1)(c1ccc(F)cc1)c1cn(C2CC2)nn1` [Example 203, (S)-8-chloro-6-(((1-cyclopropyl-1H-1,2,3-triazol-4-yl)(4-fluorophenyl)methyl-d)amino)-4-(((1-(difluoromethyl)cyclopropyl)methyl)amino) quinoline-3-carbonitrile], the EC50 in test [1] (setting [3]) turned out to be 608 nM. In test [2] (setting [4]), the IC50 came to 38 nM.

Take `Cc1c([C@H](Nc2cc(C#N)c3ncc(C#N)c(NCC(C)(C)C)c3c2)c2cn(C3(C(F)F)CC3)nn2)cccc1-n1cncn1` [Example 1054, (S)-6-(((1-(1-(difluoromethyl)cyclopropyl)-1H-1,2,3-triazol-4-yl)(2-methyl-3-(1H-1,2,4-triazol-1-yl)phenyl)methyl)amino)-4-(neopentylamino)quinoline-3,8-dicarbonitrile]: in test [1] (setting [5]), the EC50 stood at 81 nM. Moreover, the IC50 in test [2] (setting [6]) was found to be 1 nM.

Turning to `CC(C)(C)N1CCC(n2cc([C@@H](Nc3cc(Cl)c4ncc(C#N)c(Nc5cc(Cl)ccc5F)c4c3)c3ccc(Cl)cc3)nn2)CC1` [Example 652, (S)-6-(((1-(1-(tert-butyl)piperidin-4-yl)-1H-1,2,3-triazol-4-yl)(4-chlorophenyl)methyl)amino)-8-chloro-4-((5-chloro-2-fluorophenyl)amino)quinoline-3-carbonitrile], the EC50 in test [1] (setting [3]) came to 7660 nM. Further, the IC50 in test [2] (setting [7]) was 61 nM.

Regarding `Cn1cc(C(Nc2cc(Cl)c3ncc(C#N)c(Nc4ccc(F)c(Cl)c4)c3c2)c2ccc(F)cc2)nn1` (stereo not shown) [Example 882, 8-chloro-4-((3-chloro-4-fluorophenyl)amino)-6-(((4-fluorophenyl)(1-methyl-1H-1,2,3-triazol-4-yl)methyl)amino)quinoline-3-carbonitrile], the EC50 in test [1] (setting [3]) was determined as 321 nM. The IC50 in test [2] (setting [7]) worked out at 20 nM.

For `CC(C)n1cc([C@@H](Nc2cc(Cl)c3ncc(C#N)c(Nc4cnc(F)c(F)c4)c3c2)c2cccc(-c3nccn3C)c2)nn1` [Example 385, (S)-8-chloro-4-((5,6-difluoropyridin-3-yl)amino)-6-(((1-isopropyl-1H-1,2,3-triazol-4-yl)(3-(1-methyl-1H-imidazol-2-yl)phenyl)methyl)amino) quinoline-3-carbonitrile], the EC50 in test [1] (setting [3]) was 692 nM. Besides, the 50% inhibitory concentration (IC50) in test [2] (setting [4]) was determined as 4 nM.

Turning to `COc1ncccc1Nc1c(C#N)cnc2c(Cl)cc(N[C@@H](c3ccccc3)c3cn(C4CCN(C(C)(C)C)CC4)nn3)cc12` [Example 480, (S)-6-(((1-(1-(tert-butyl)piperidin-4-yl)-1H-1,2,3-triazol-4-yl)(phenyl)methyl)amino)-8-chloro-4-((2-methoxypyridin-3-yl)amino)quinoline-3-carbonitrile], the EC50 in test [1] (setting [3]) amounted to 8510 nM. Moreover, in test [2] (setting [7]), the IC50 came out at 1220 nM.

On to `[2H][C@](Nc1cc(Cl)c2ncc(C#N)c(NCC3(C4CC4)CCC3)c2c1)(c1ccc(F)cc1)c1cn(C2CC2)nn1` [Example 260, (S)-8-chloro-6-(((1-cyclopropyl-1H-1,2,3-triazol-4-yl)(4-fluorophenyl)methyl-d)amino)-4-(((1-cyclopropylcyclobutyl)methyl)amino)quinoline-3-carbonitrile], for which the EC50 in test [1] (setting [3]) stood at 584 nM. The IC50 in test [2] (setting [4]) was determined as 33 nM.

Turning to `[2H][C@](Nc1cc(O)c2ncc(C#N)c(NCC(C)(C)C)c2c1)(c1ccc(F)cc1)c1cn(C2CC2)nn1` [Compound 43], the EC50 in test [1] (setting [3]) was above 10000 nM. For the same compound, the IC50 in test [2] (setting [4]) turned out to be 1940 nM.

On to `Cc1ccccc1[C@@H](C)Nc1c(C#N)cnc2c(Cl)cc(N[C@@H](c3ccccc3)c3cn(C4CCN(C(C)(C)C)CC4)nn3)cc12` [Example 585, 6-(((S)-(1-(1-(tert-butyl)piperidin-4-yl)-1H-1,2,3-triazol-4-yl)(phenyl)methyl)amino)-8-chloro-4-(((R)-1-(o-tolyl)ethyl)amino)quinoline-3-carbonitrile], for which the EC50 in test [1] (setting [3]) was 427 nM. The IC50 in test [2] (setting [7]) was determined as 16 nM.

For `Cc1c(-c2cnco2)cccc1[C@H](Nc1cc(C#N)c2ncc(C#N)c(NCC(C)(C)C)c2c1)c1cn(C2(C(F)F)CC2)nn1` [Example 1158, (S)-6-(((1-(1-(difluoromethyl)cyclopropyl)-1H-1,2,3-triazol-4-yl)(2-methyl-3-(oxazol-5-yl)phenyl)methyl)amino)-4-(neopentylamino)quinoline-3,8-dicarbonitrile], in test [1] (setting [5]), the EC50 was determined as 26 nM. For the same compound, in test [2] (setting [6]), the IC50 was 2 nM.

Take `[2H][C@](Nc1cc(C)c2ncc(C#N)c(NCC(C)(C)C)c2c1)(c1ccc(F)cc1)c1cn(C2CC2)nn1` [Example 194, (S)-6-(((1-cyclopropyl-1H-1,2,3-triazol-4-yl)(4-fluorophenyl)methyl-d)amino)-8-methyl-4-(neopentylamino) quinoline-3-carbonitrile]: the EC50 in test [1] (setting [3]) is 2420 nM. Besides, the IC50 in test [2] (setting [4]) came to 286 nM.

For the compound `[2H][C@](Nc1cc(Cl)c2ncc(C#N)c(NCCc3ccn(C)n3)c2c1)(c1ccc(F)cc1)c1cn(C2CC2)nn1` [Example 148, (S)-8-chloro-6-(((1-cyclopropyl-1H-1,2,3-triazol-4-yl)(4-fluorophenyl)methyl-d)amino)-4-((2-(1-methyl-1H-pyrazol-3-yl)ethyl)amino) quinoline-3-carbonitrile], in test [1] (setting [3]), the EC50 came to 8670 nM. Moreover, the IC50 in test [2] (setting [4]) was 2140 nM.

With `N#Cc1cnc2c(Cl)cc(N[C@@H](c3ccc(F)cc3)c3cn(-c4cccnc4)nn3)cc2c1Nc1cnc(F)c(F)c1` [Example 389, (S)-8-chloro-4-((5,6-difluoropyridin-3-yl)amino)-6-(((4-fluorophenyl) (1-(pyridin-3-yl)-1H-1,2,3-triazol-4-yl)methyl)amino)quinoline-3-carbonitrile], the EC50 in test [1] (setting [3]) amounted to 817 nM. The IC50 in test [2] (setting [4]) was determined as 37 nM.

As to `CC(C)(C)N1CCC(n2cc(C(Nc3cc(Cl)c4ncc(C#N)c(NC5CCC(O)CC5)c4c3)c3ccccc3)nn2)CC1` [Example 597, 6-(((S)-(1-(1-(tert-butyl)piperidin-4-yl)-1H-1,2,3-triazol-4-yl)(phenyl)methyl)amino)-8-chloro-4-(((1r,4S)-4-hydroxycyclohexyl)amino) quinoline-3-carbonitrile], the EC50 in test [1] (setting [3]) was found to be 3180 nM. Also, the IC50 in test [2] (setting [7]) came to 189 nM.

As to `CC(C)n1cc([C@@H](Nc2cc(Cl)c3ncc(C#N)c(N[C@H](c4ccccc4)C(F)(F)F)c3c2)c2ccc(F)cc2)nn1` [Example 363, 8-chloro-6-(((S)-(4-fluorophenyl)(1-isopropyl-1H-1,2,3-triazol-4-yl)methyl)amino)-4-(((R)-2,2,2-trifluoro-1-phenylethyl)amino)quinoline-3-carbonitrile], the EC50 in test [1] (setting [3]) was above 10000 nM. The IC50 in test [2] (setting [4]) was 874 nM.

Regarding `Cc1ccccc1CNc1c(C#N)cnc2c(Cl)cc(N[C@@H](c3ccc(Cl)cc3)c3cn(C4CCN(C(C)(C)C)CC4)nn3)cc12` [Example 680, (S)-6-(((1-(1-(tert-butyl)piperidin-4-yl)-1H-1,2,3-triazol-4-yl)(4-chlorophenyl)methyl)amino)-8-chloro-4-((2-methylbenzyl)amino)quinoline-3-carbonitrile], the EC50 in test [1] (setting [3]) amounted to 6750 nM. Besides, the IC50 in test [2] (setting [7]) is 44 nM.
